{"source": "patent US20230255965A1", "about": "“TRPV4 INHIBITOR AS A THERAPEUTIC AGENT FOR OCULAR DISEASES” (RaQualia Pharma Inc., priority 2020, published 2023)", "key": {"[1]": {"test_system": "mouse retinal vein occlusion model", "test": "Histological evaluation for retinal vein occlusion: thickness of the retinal inner nuclear layer (INL), HE staining", "type": "in vivo", "settings": "single intravitreal administration of 2 μL, 24 hours after irradiation, vs vehicle", "method": "(§1) Eight-week-old male ddY mice are anesthetized with a mixture of ketamine (120 mg/kg) and xylazine (6 mg/kg) administered intramuscularly. After that, 0.15 mL of a photosensitizer, rose bengal (20 mg/kg) is administered into the tail vein, and a laser (wavelength 532 nm) is irradiated into a vein three optic disc diameters away from the optic disc in the mouse right eye to occlude the retinal vein and form a pathological condition. Laser irradiation is performed using an attachment of Micron4 (Phoenix Research lab., CA, USA), which is a fundus imaging device, under prescribed laser irradiation conditions (wavelength 532 nm, spot size 50 μm, irradiation time 5 seconds, laser power 50 mW). The vein is occluded by 10 to 15 laser irradiations per vein.\nImmediately after laser irradiation, a TRPV4 inhibitor is administered, and 24 hours after irradiation, the eyeball is removed and a retinal histopathology specimen is prepared. Hematoxylin-eosin (HE) staining is performed to measure the thickness of the retinal inner nuclear layer (INL). Other stains (e.g., TUNEL stain) may be used for analysis as needed.\nAdministration of a TRPV4 inhibitor is performed by intravitreal administration (local administration). The conditions of the solution for administration are investigated in advance, and the concentration for intravitreal administration is determined. However, if the conditions for systemic administration are met, systemic administration may be included in the group composition. For intravitreal administration, the dosage should be 2 μL/eye as a single dose. For systemic administration, the number of doses and dosage should be determined after a separate consideration.\nAfter a single intravitreal administration of 2 μL of a TRPV4 inhibitor (25 μM, 250 μM) or vehicle, whether the TRPV4 inhibitor restores the retinal edema is evaluated."}, "[2]": {"test_system": "human retinal microvascular endothelial cells (HRMECs)", "test": "Cell permeability using human retinal microvascular endothelial cells, transendothelial electrical resistance (TEER)", "type": "cell-based", "settings": "for inhibition at 10 µM: Homo sapiens, HRMEC, read-out: inhibition rate of increased vascular permeability (TEER); for change of transepithelial electrical resistance (TEER values): 24 hours after addition", "method": "Human retinal microvascular endothelial cells (HRMECs) are seeded onto Transwell inserts at a density of 1.0×10^5 cells/mL. The medium is changed every other day and the cells are cultured for 7 days. Transendothelial electrical resistance (TEER) is measured using a measurement device and cup-shaped electrode (Endohm-6; World Precision Instruments, USA). One hour after the addition of a TRPV4 inhibitor (final concentration: 1 μM, 10 μM) or buffer for evaluation to cells, VEGF (final concentration: 10 ng/mL) or GSK1016790A, a TRPV4 agonist (final concentration: 10 nM) is added, and 24 hours after the addition, transepithelial electrical resistance values (TEER values) is measured 24 hours after addition. The transepithelial electrical resistance value (TEER value) is an index for evaluating barrier functions such as tight junctions of cells."}, "[3]": {"test_system": "tumor necrosis factor alpha (TNFα)", "test": "Expression of TNFα in retina of mouse retinal vein occlusion model by Western blotting", "type": "in vivo", "settings": "250 μM, 2 μL intravitreal immediately after vascular occlusion, retina 1 day after occlusion", "method": "as §1\nUsing the same method as in Example 3, the retinal veins of mice are occluded by laser irradiation into the veins of the eye.\nImmediately after laser irradiation, 2 μL of a TRPV4 inhibitor (250 μM) is administered intravitreally. One day after vascular occlusion, the mice are euthanized by cervical dislocation, and then retinas isolated from removed eyeballs are evaluated by Western blotting."}, "[4]": {"test_system": "mouse model of retinal vein occlusion", "test": "Late drug administration 7 days after vascular occlusion: suppression of retinal thinning (OCT)", "type": "in vivo", "settings": "250 μM, 2 μL intravitreal 7 days after occlusion, measured 1 day after administration", "method": "as §1\n(§2) Seven days after vascular occlusion, the retina is damaged, the retinal layer structure is thinned, the blood flow is reduced, and a retinal nonperfusion area exists. Whether the TRPV4 inhibitor restores this condition is evaluated. […]\n(§3) Seven days after vascular occlusion, 2 μL of a TRPV4 inhibitor (250 μM) or vehicle is administered intravitreally. One day after administration (8 days after occlusion), the retinal layers are imaged using optical coherence tomography (OCT) and intraocular blood flow is measured using laser speckle."}, "[5]": {"test_system": "mouse model of retinal vein occlusion", "test": "Late drug administration 7 days after vascular occlusion: ocular blood flow (laser speckle)", "type": "in vivo", "settings": "250 μM, 2 μL intravitreal 7 days after occlusion, measured 1 day after administration", "method": "as §1, §2, §3"}, "[6]": {"test_system": "mouse model of retinal vein occlusion", "test": "Late drug administration 7 days after vascular occlusion: retinal nonperfusion area (FITC-dextran flat mount)", "type": "in vivo", "settings": "250 μM, 2 μL intravitreal 7 days after occlusion, 1 day after administration", "method": "as §1, §2\nas §3, with “speckle. […]” for “speckle.”"}, "diabetic model mice": {"test_system": "diabetic model mice", "settings": "cited from earlier work; for retinal edema: single intravitreal administration"}, "[7]": {"settings": "final concentration 10 μM, compared to VEGF-added group, 24 hours"}}, "note": "Where two headings read alike, the source gives them in different places."}
{"compound": "O=C([C@H](O)c1cccc(Cl)c1)N1CCc2nc(C3(c4ccccc4)CC3)[nH]c(=O)c2C1", "note": "[Compound A, (R)-6-(2-(3-chlorophenyl)-2-hydroxyacetyl)-2-(1-phenylcyclopropyl)-5,6,7,8-tetrahydropyrido[4,3-d]pyrimidin-4(3H)-one]", "values": [{"measurement": "inhibition rate of the increase in the thickness of the retinal inner nuclear layer (INL)", "setting": "[1]; 25 μM", "result": 40, "unit": "%"}, {"measurement": "inhibition rate of the increase in the thickness of the retinal inner nuclear layer (INL)", "setting": "[1]; 250 μM", "result": 76, "unit": "%"}, {"measurement": "inhibition rate of increased vascular permeability (TEER)", "setting": "[2]; final concentration 1 μM, 10 μM, VEGF 10 ng/mL or GSK1016790A 10 nM added, 24 hours", "result": "≥ 50", "unit": "%"}, {"measurement": "inhibition rate of the increase in TNF expression", "setting": "[3]", "result": "≥ 50", "unit": "%"}, {"measurement": "inhibition of retinal thinning", "setting": "[4]", "result": "≥ 30", "unit": "%"}, {"measurement": "improvement of ocular blood flow reduction rate", "setting": "[5]", "result": "≥ 30", "unit": "%"}, {"measurement": "inhibition rate of nonperfusion areas in the retina", "setting": "[6]", "result": "≥ 50", "unit": "%"}]}
{"compound": "CC(C)(O)c1cnc(N2C[C@@]3(CCC[C@](C)(Cn4cnc5ccc(C#N)cc54)C3)OC2=O)cn1", "note": "[Compound B, 1-(((5S,7S)-3-(5-(2-hydroxypropan-2-yl)pyrazin-2-yl)-7-methyl-2-oxo-1-oxa-3-azaspiro[4.5]decan-7-yl)methyl)-1H-benzo[d]imidazole-6-carbonitrile]", "values": [{"measurement": "inhibition rate of the increase in the thickness of the retinal inner nuclear layer (INL)", "setting": "[1]; 250 μM", "result": 62, "unit": "%"}, {"measurement": "inhibition at 10 µM", "setting": "[2]; 24 h", "result": "≥ 30", "unit": "%"}]}
{"compound": "O=C(NC1(c2ccccc2)CC1)c1c(CN2CCC(N3CCCCC3)CC2)c(-c2cccc(C(F)(F)F)c2)nc2cc(Br)ccc12", "note": "[Compound C, 3-(1,4′-bipiperidin-1′-ylmethyl)-7-bromo-N-(1-phenylcyclopropyl)-2-[3-(trifluoromethyl)phenyl]-4-quinolinecarboxamide]", "values": [{"measurement": "inhibition rate of the increase in the thickness of the retinal inner nuclear layer (INL)", "setting": "[1]; 250 μM", "result": 59, "unit": "%"}, {"measurement": "inhibition at 10 µM", "setting": "[2]; [7]", "result": "≥ 30", "unit": "%"}, {"measurement": "retinal thinning", "setting": "diabetic model mice; Non-Patent Literature 11", "result": "not suppressed"}, {"measurement": "retinal edema", "setting": "diabetic model mice; Non-Patent Literature 11", "result": "it does not"}, {"measurement": "retinal edema", "setting": "diabetic model mice; Patent Literature 2", "result": "suppresses retinal edema"}]}
{"compound": "Cc1c(C(=O)Nc2cccc(C(F)(F)F)c2)cc(-c2ccccc2)n1CCCN1CCOCC1", "note": "[Compound D, N-(3-(trifluoromethyl)phenyl)-2-methyl-1-(3-morpholinopropyl)-5-phenyl-1H-pyrrole-3-carboxamide]", "values": [{"measurement": "inhibition rate of the increase in the thickness of the retinal inner nuclear layer (INL)", "setting": "[1]; 250 μM", "result": 64, "unit": "%"}, {"measurement": "inhibition at 10 µM", "setting": "[2]; [7]", "result": "≥ 30", "unit": "%"}]}
{"compound": "CC(C)C[C@H](NC(=O)c1cc2ccccc2s1)C(=O)N1CCN(C(=O)[C@H](CO)NS(=O)(=O)c2ccc(Cl)cc2Cl)CC1", "note": "[GSK1016790A]", "values": [{"measurement": "change of transepithelial electrical resistance (TEER values)", "setting": "[2]; GSK1016790A final concentration 10 nM", "result": "decreases transepithelial electrical resistance"}]}
{"compound": "VEGF", "values": [{"measurement": "change of transepithelial electrical resistance (TEER values)", "setting": "[2]; VEGF final concentration 10 ng/mL", "result": "decreases transepithelial electrical resistance"}]}
